In patent publication US20230390416A1, “COMPOSITIONS FOR INDUCING TUMOR IMMUNITY AND REDUCING DRUG TOLERANCE” (The Brigham and Women's Hospital, Inc., priority 2020, published 2023):

Legend:
[1] = NPs exemplified in U.S. Pat. No. 10,300,143; cited from earlier work
DTCCs = assay: Western blot of DTCCs after transient exposure to Rad-NP or radicicol free drug; type: cell-based; details: 4 hours exposure, wash-out; in most cases
Protocol: Protein samples were resolved by SDS-PAGE and transferred to PVDF membranes prior to incubation at 4° C. with indicated primary antibodies, mTOR and pMTOR^Ser2448, pAKT^Thr308 and AKT, Phospho-p44/42 MAPK (Erk1/2)^Thr202/Tyr204, p44/42 MAPK (Erk1/2) pPRAS40^Thr246 pSTAT3^Tyr705, STAT3, PRAS40 and β-Actin antibodies were purchased from Cell Signaling Technology, pHck^Tyr410 (Thermo Fisher Scientific) MICA/B (R&D Systems, Minneapolis, MN) and HSF-1 and HSF-1^Ser326 (abcam).

[2] = clinical Cmax from published literature; used as ex vivo treatment concentration, 72 hours; cited from earlier work
MDA-MB-231 DTCCs [3] = assay: MICA/B expression by flow cytometry in DTCCs under Hsp90 inhibitors; type: cell-based, human; details: % MICA/B positively expressing cells, overnight (radicicol 5 μM, FIG. 3C), vehicle 76.2 ± 1.1
Protocol: (§1) Two schedules of drugs in combination were administered to the indicated TNBC parental cell lines (A). […] Plots generated using constant ratio drug combination. […] N=11 in biological replicate. • (D) Quantification of MICA/B mean fluorescence, corrected for background by negative control. […] N≥4 in biological replicate. • (I) In vitro drug synergy was determined using the Chau-Talalay method. Two schedules of drugs in combination were administered to the indicated TNBC parental cell lines (A). […] Plots generated using constant ratio drug combination. Values falling below 1.0 combination index=synergy. • (J) In silico prediction model of drug schedule on signaling pathways. […] The first drug was administered at the beginning of the experiment (t=0), followed by the second drug after 48 h (t=48). […] GAPDH loading control.
(§2) Human MDA-MB-231, MDA-MB-468, MDA-MB-436, MCF-7, mammary carcinoma 4T-1 cells (ATCC) and SUM159 (Bioivt) were purchased in the last 10 years and cultured in 10% fetal bovine serum in DMEM or RPMI media (Invitrogen, Carlsbad CA, USA). Cell lines were validated for absence of mycoplasma prior to use, by the sourcing agency. Cells were used within 10 passages from frozen stock vials obtained from the sourcing agency.

SUM 159 DTCCs = assay: as above; type: cell-based, human; details: % MICA/B positively expressing cells, vehicle 30.6 ± 0.9
Protocol: as §1, §2

MDA-MB-468 DTCCs = assay: as above; type: cell-based, human; details: % MICA/B positively expressing cells, vehicle 54.7 ± 3.9
Protocol: as §1, §2

MDA-MB-231 DTCCs [4] = assay: Fluorescent lipid uptake by flow cytometry, DTCCs vs DNCCs; type: cell-based, human; details: for uptake into DTCCs vs. DNCCs: fluorescently labeled lipids, flow cytometry
MDA-MB-468 = assay: as above; type: cell-based, human; details: multiple TNBC cell lines using epithelial-like MDA-MB-468

**Q.** With `Oc1cccc(-c2nc(N3CCOCC3)c3oc4ncccc4c3n2)c1` [PI-103] as the compound, how does the incorporation efficiency [1] read?
**A.** The incorporation efficiency was 55-65%.

**Q.** Which “time of rescue of signaling disruption” value (DTCCs) does the source give for `C[C@@H]1C[C@H]2O[C@@H]2/C=C\C=C\C(=O)Cc2c(Cl)c(O)cc(O)c2C(=O)O1` [Radicicol, radicicol] here?
**A.** The value was ≤ 36 h.

**Q.** Which Cmax [2] does the source give for `CC(=O)O[C@H]1C(=O)[C@@]2(C)[C@H]([C@H](OC(=O)c3ccccc3)[C@]3(O)C[C@H](OC(=O)[C@H](O)[C@@H](NC(=O)c4ccccc4)c4ccccc4)C(C)=C1C3(C)C)[C@]1(OC(C)=O)CO[C@@H]1C[C@@H]2O` [Paclitaxel] here?
**A.** Its Cmax is 6.91 µM.

**Q.** With `C=C1C[C@@H]2CC[C@@]34C[C@H]5O[C@H]6[C@@H](O3)[C@H]3O[C@H](CC[C@@H]3O[C@H]6[C@H]5O4)CC(=O)C[C@@H]3[C@@H](OC)[C@@H](C[C@H](O)CN)O[C@H]3C[C@H]3O[C@@H](CC[C@@H]1O2)C[C@@H](C)C3=C` [Eribulin] as the compound, how does the “Cmax (concentration used)” value [2] read?
**A.** Its value is 371 ng/mL.

**Q.** With `C/C(=C\c1csc(C)n1)[C@@H]1C[C@@H]2O[C@]2(C)CCC[C@H](C)[C@H](O)[C@@H](C)C(=O)C(C)(C)[C@@H](O)CC(=O)N1` [Ixabepilone] as the compound, how does the “Cmax (concentration used)” value [2] read?
**A.** The value was 252 ng/mL.

**Q.** For `CCCCCOC(=O)Nc1nc(=O)n([C@@H]2O[C@H](C)[C@@H](O)[C@H]2O)cc1F` [Capecitabine], which “Cmax (concentration used)” value [2] is on record?
**A.** Its value is 3900 ng/mL.

**Q.** For “Pembrolizumab: clinically-approved anticancer drug”, which “Cmax (concentration used)” value [2] is on record?
**A.** Its value is 65700 ng/mL.

**Q.** With `CC(C)c1cc(-c2n[nH]c(=O)n2-c2ccc3c(ccn3C)c2)c(O)cc1O` [Ganetespib, ganetespib] as the compound, how does the “MICA (%) ± SEM” value (MDA-MB-231 DTCCs [3]) read?
**A.** The value was 82.5 ± 2.2%.

**Q.** And the “MICA (%) ± SEM” value (SUM 159 DTCCs)?
**A.** Its value is 35.4 ± 6.0%.

**Q.** And the “MICA (%) ± SEM” value (MDA-MB-468 DTCCs)?
**A.** The value was 70.1 ± 3.0%.

**Q.** For `CC(CCC[C@@H](C)[C@@H]1CC[C@H]2[C@@H]3CC=C4C[C@@H](O)CC[C@]4(C)[C@H]3CC[C@@]21C)N(C)c1ccc([N+](=O)[O-])c2nonc12` (some centres unmarked) [cholesterol, 25-[N-[(7-nitro-2-1,3-benzoxadiazol-4-yl)methyl]amino]-27-norcholesterol], which “uptake into DTCCs vs. DNCCs” value (MDA-MB-231 DTCCs [4]) is on record?
**A.** Its value is “significantly increased uptake into DTCCs vs. DNCCs”.

**Q.** And the “specificity of binding to DTCCs” value (MDA-MB-468)?
**A.** The value was “bound with the highest degree of specificity”.

**Q.** For `CCCCCCCC/C=C\CCCCCCCC(=O)OC[C@H](COP(=O)(O)O)OC(=O)CCCCCCCCCCCNc1ccc([N+](=O)[O-])c2nonc12.N.N` [phosphatidic acid (PA), 1-oleoyl-2-{12-[(7-nitro-2-1,3-benzoxadiazol-4-yl)amino]dodecanoyl}-sn-glycero-3-phosphate (ammonium salt)], which “uptake into DTCCs vs. DNCCs” value (MDA-MB-231 DTCCs [4]) is on record?
**A.** Its value is “to a lesser degree”.

**Q.** For `N.N.O=C([O-])C1(C(=O)[O-])CCC1.[Pt+2]` [Carboplatin], which “Cmax (concentration used)” value [2] is on record?
**A.** The value was 37100 ng/mL.

**Q.** For `Nc1ccn([C@@H]2O[C@H](CO)[C@@H](O)C2(F)F)c(=O)n1` [Gemcitabine], which “Cmax (concentration used)” value [2] is on record?
**A.** Its value is 22300 ng/mL.

**Q.** For `CCC1=C[C@@H]2CN(C1)Cc1c([nH]c3ccccc13)[C@@](C(=O)OC)(c1cc3c(cc1OC)N(C)[C@H]1[C@@](O)(C(=O)OC)[C@H](OC(C)=O)[C@]4(CC)C=CCN5CC[C@]31[C@@H]54)C2` [Vinorelbine], which “Cmax (concentration used)” value [2] is on record?
**A.** The value was 126.6 ng/mL.

**Q.** With `CC(=O)O[C@@]12CO[C@@H]1C[C@H](O)[C@@]1(C)C(=O)[C@H](O)C3=C(C)[C@@H](OC(=O)[C@H](O)[C@@H](NC(=O)OC(C)(C)C)c4ccccc4)C[C@@](O)([C@@H](OC(=O)c4ccccc4)[C@H]21)C3(C)C` [Docetaxel, docetaxel] as the compound, how does the “Cmax (concentration used)” value [2] read?
**A.** Its value is 2000 ng/mL.

**Q.** And the “active form of HSF-1 (Ser326)” value (Hsp90; parental MDA-MB-231 cells under docetaxel drug pressure, western blot)?
**A.** The value was “induced the active form of HSF-1 (Ser326)”.

**Q.** With `CCCCCCCC/C=C\CCCCCCCC(=O)OC[C@H](COP(=O)([O-])OCC[N+](C)(C)C)OC(=O)CCCCCNc1ccc([N+](=O)[O-])c2nonc12` [phosphatidylcholine (PC), 1-oleoyl-2-{6-[(7-nitro-2-1,3-benzoxadiazol-4-yl)amino]hexanoyl}-sn-glycero-3-phosphocholine] as the compound, how does the “rate of internalization in DTCC vs DNCC” value (MDA-MB-231 DTCCs [4]; checked at definite time intervals) read?
**A.** The value was “higher rate of internalization”.

**Q.** And the “uptake into DTCCs vs. DNCCs” value (MDA-MB-231 DTCCs [4])?
**A.** The value was “significantly increased uptake into DTCCs vs. DNCCs”.

**Q.** What about the “specificity of binding to DTCCs” value (MDA-MB-468) of the same compound?
**A.** The value was “bound with the highest degree of specificity”.

**Q.** With `Nc1ccc(-c2cccc3c(=O)cc(N4CCOCC4)oc23)cc1` [PI-828] as the compound, how does the incorporation efficiency [1] read?
**A.** The incorporation efficiency was ~40%.

**Q.** With `CC(C)NCCCn1c(Sc2cc3c(cc2I)OCO3)nc2c(N)ncnc21` [PU-H71] as the compound, how does the “cytoplasmic sequestration of HSF-1 Ser326 and activation of pro-survival proteins” value (Hsp90; DTCCs, confocal microscopy and western blot) read?
**A.** Its value is “reversed cytoplasmic sequestration of HSF-1^Ser326 and activation of pro-survival proteins”.

**Q.** And the “MICA (%) ± SEM” value (MDA-MB-231 DTCCs [3])?
**A.** The value was 79.5 ± 0.4%.

**Q.** What about the “MICA (%) ± SEM” value (SUM 159 DTCCs) of the same compound?
**A.** Its value is 33.3 ± 4.1%.

**Q.** And the “MICA (%) ± SEM” value (MDA-MB-468 DTCCs)?
**A.** The value was 71.9 ± 4.2%.
